Reference: article PMC4066839 (MedChemComm, 2014)

Tested on: C. neoformans
Test: in vitro growth inhibition
Assay type: cell-based, Cryptococcus neoformans
Conditions: highest tested concentration 20 μg/mL; NA = not active

For `COc1ccc(-c2nc(C[C@H](N)C(=O)N[C@@H](CCCNC(=N)N)C(=O)NCc3ccccc3)c[nH]2)cc1` [Peptide 5d], the “C. neoformans IC50 (concentration that affords 50% inhibition of growth)” value was “inactive”.
